The record followed here is US20040102422A1, “Cancer therapy” (The University of Bristol, priority 2001, published 2004).

Experiment [1] deals with HeLa cells. Put plainly: Apoptosis of HeLa cells transiently transfected with pWEB-E2 (HPV 16 E2) or empty pWEB, scored by GFP and Hoechst stain. The experiment is classed as cell-based. On the procedure: (§1) In all of the following experiments, HeLa cells were maintained in Minimal Essential Medium (MEM: Sigma) supplemented with 10% Foetal Bovine Serum (FBS: Sigma) and penicillin (100,000 U/litre) and streptomycin (100 mg/litre) at 37° C. in 5% CO2. In some cases, supplements (all obtained from Sigma, with the exception of 3-hydroxytamoxifen which was obtained from Research Biochemicals International (RBI)) were added to the media at the concentrations specifically indicated for each separate experiment.
Prior to transient transfection, cells were seeded at 3×10^5 cells per well onto coverslips in 6 well plates and incubated overnight to obtain a sub-confluent culture. The liposome based reagent Tfx-20 (Promega) was used at a 3:1 liposome:DNA ratio in 1 ml serum-free media per transfection, according to the manufacturer's instructions. After 30 hours, the coverslips were washed in phosphate buffered saline (PBS) and the cells fixed in 4% paraformaldehyde/PBS at 22° C. for 30 minutes. Following further washes in PBS, the cells were stained with bisbenzimide (Hoechst No. 33258: Sigma) for 30 minutes. Finally the coverslips were washed in PBS and mounted onto microscope slides in 10 μl MOWIOL (Calbiochem).
Where used, fluorescence microscopy was carried out using a Leica DM IRBE inverted epi-fluorescent microscope with FITC and DAPI filter sets and a 20× air objective (Leica).
The plasmid pWEB-E2 expresses the HPV 16 E2 protein (Webster, K. et al., (2000) supra). Increasing amounts of pWEB-E2 and the empty pWEB vector were transiently transfected into HeLa cells, an HPV 18-transformed cell cervical carcinoma cell line, along with a plasmid (pCMX-GFP3- supplied by Dr Jeremy Tavaré of the Department of Biochemistry, University of Bristol, UK) that expresses the green fluorescent protein (GFP). After 30 hours the cells were fixed and then stained with bisbenzimide (Hoechst stain). Individual cells were scored as untransfected or transfected on the basis of GFP expression and then examined for chromatin condensation and membrane blebbing using Hoechst stain and GFP, respectively (Webster, K. et al., (2000) spra). 100 transfected cells were counted and the experiment was repeated four times.

Experiment [2] deals with HeLa cells. Description: MTT assay of HeLa cell viability / proliferation. The experiment is classed as cell-based. Particulars: for cell proliferation (number of viable cells, MTT): HeLa cultured in media containing the single agent, read at 24 hour intervals, FIG. 1(d), 1(e). The procedure:
as §1
Where MTT assays were carried out, this involved removal of the media, followed by incubation of the cells in 50 μg/ml MTT (3-(4,5 dimethylthiazol 2-yl) 2,5 diphenyl tetrazolium bromide) for 2 hours at 37° C. The blue formazan crystals were extracted and dissolved in DMSO (dimethylsulfoxide), and the absorbance measured at 560 nm wavelength using an ELISA plate reader (Mosmann, T. (1983) Journal of Immunological Methods 65, 55-631983).
To examine the effects of RU486 and progesterone on cell proliferation, HeLa cells were cultured in media containing RU486 and/or progesterone and at 24 hour intervals the number of viable cells was determined using MTT assays (Mosmann, T. (1983) supra). […] The presence of RU486 has little effect on cell proliferation (FIG. 1(e)).
Background: Formazan colour is commonly taken as a measure of viable cells.

In the case of `CC#C[C@]1(O)CC[C@H]2[C@@H]3CCC4=CC(=O)CCC4=C3[C@@H](c3ccc(N(C)C)cc3)C[C@@]21C` [RU486, Mifepristone], in the experiment with HeLa cells [1] (2 μM progesterone plus 100 nM and 200 nM RU486, compared with 50 nM RU486, FIG. 1(c)), the levels of apoptosis entry is recorded as “raised compared to those at 50 nM RU486”. Besides, the “level of E2-induced apoptosis” value in the experiment with HeLa cells [1] (pWEB-E2 transfected HeLa, 2 μM progesterone plus 50 nM RU486, FIG. 1(c)) is “reduced almost to the background levels”. Moreover, the “level of apoptosis in the untransfected cells” value with HeLa cells [1] (progesterone plus 200 nM RU486, FIG. 1(c)) was “slight increase”. Further, the “cell proliferation (number of viable cells, MTT)” value with HeLa cells [2] is on record as “little effect”.

For `CC(=O)[C@H]1CC[C@H]2[C@@H]3CCC4=CC(=O)CC[C@]4(C)[C@H]3CC[C@]12C` [progesterone], the “levels of E2-induced apoptosis” value with HeLa cells [1] (HeLa cultured in 2 μM progesterone for one week prior to transfection with pWEB-E2, FIG. 1(b)) is reported as “significant increase”. In the experiment with HeLa cells [1] (HeLa cultured in 2 μM progesterone one week before transfection and incubated in 2 μM progesterone, no RU486, FIG. 1(c)), the “level of apoptosis in E2 expression plasmid transfected population” value was “high levels of apoptosis”. Also, the “level of apoptosis in cells transfected with the empty pWEB vector” value with HeLa cells [1] (HeLa cultured in progesterone for one week prior to transfection with pWEB, FIG. 1(b)) was “around 7%”. In the experiment with HeLa cells [2], the “cell proliferation (number of viable cells, MTT)” value was “decrease in cell proliferation”.

With `C[C@]12CC[C@@H]3c4ccc(O)cc4CC[C@H]3[C@@H]1C[C@@H](O)C2=O` [16α-hydroxyestrone], the “level of E2-induced apoptosis” value with HeLa cells [1] (pWEB-E2 transfected HeLa incubated 24 hours in media with various concentrations of the hormone, FIG. 2(a), 2(b)) was “increases the level of E2-induced apoptosis”.

As for `CC/C(=C(/c1ccc(OCCN(C)C)cc1)c1cccc(O)c1)c1ccccc1` [3-OHT, 3-hydroxytamoxifen], the “percentage of apoptotic cells in the pWEB-transfected population” value in the experiment with HeLa cells [1] (empty vector pWEB, presence of estrogen and 3-OHT, FIG. 2(c)) is “around 5%”. The “percentage of apoptotic cells” value in the experiment with HeLa cells [1] (pWEB-E2 transfected HeLa, 400 nM estrogen plus 400 nM 3-OHT, FIG. 2(c)) is “around 10%”. In the experiment with HeLa cells [2] (3-OHT alone or 3-OHT with estrogen, over time, FIG. 2(e), 2(f)), the “proliferation of HeLa cells (MTT)” value is given as “no effect”.
